Test results published in patent US7968582B2, “5(S)-substituted pyrazoline compounds, their preparation and use as medicaments” (Laborotorios Del Dr. Esteve, S.A., priority 2005, dated 2011).
Blank lines part the entries; values can stand above or below the compound they belong to.

Tests used:
[1] = target: T1, recombinant human cannabinoid 1 receptor (CB1) (Homo sapiens, UniProt P21554); test: In vitro determination of antagonism to CB1-receptor, [35S]GTPγS binding assay; assay type: biochemical; conditions: compound 1 μM with agonist WIN 55,212-2 (3 nM to 3 μM); 100% = difference between maximal WIN 55,212-2 effect alone and plus Rimonabant (1 μM); CHO-hCB1 membranes
T1 construct: expressed in transfected cells; membrane preparation
T1 sequence (P21554 whole entry): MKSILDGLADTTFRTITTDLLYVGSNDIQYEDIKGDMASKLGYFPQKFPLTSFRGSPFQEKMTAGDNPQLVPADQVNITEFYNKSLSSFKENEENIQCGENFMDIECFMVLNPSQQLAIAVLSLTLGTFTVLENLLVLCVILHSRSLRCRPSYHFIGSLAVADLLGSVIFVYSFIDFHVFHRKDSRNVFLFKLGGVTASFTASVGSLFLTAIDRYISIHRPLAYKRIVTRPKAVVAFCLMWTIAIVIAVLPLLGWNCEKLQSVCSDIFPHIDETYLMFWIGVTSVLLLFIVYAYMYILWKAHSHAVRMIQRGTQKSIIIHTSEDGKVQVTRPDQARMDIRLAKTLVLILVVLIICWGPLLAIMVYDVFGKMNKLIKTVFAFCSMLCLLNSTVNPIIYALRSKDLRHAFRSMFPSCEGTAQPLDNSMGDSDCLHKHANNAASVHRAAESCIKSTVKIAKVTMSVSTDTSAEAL
Experimental: VI. In vitro Determination of Antagonism to CB1-Receptor
In order to obtain cells, culture flasks were washed twice with phosphate buffered saline and scraped. Then, cells were collected by centrifugation (200×g, 10 min) and stored dry at −80° C.
[^35S]GTPγS Binding Assay:
The reaction was performed in 96-well plates. […] Filter plates were dried and 30 μl of scintillation liquid was added, Radioactivity was determined using a Wallac Microbeta Trilux. Each experiment was performed at least in duplicate.
The average of basal [^35S]GTPγS binding was subtracted from all binding data.

[2] = Effect of continued administration on body weight in rats; assay type: in vivo
Experimental: V. Determination of the Effect of Continued Administration of the Inventive Compounds on Body Weight in Rats
The weight of the animals was measured for 36 days, and the data grouped into 3 periods for analysis: Period 1, days 1-8 (period for adaptation of the animals to the environmental conditions: one week without treatment plus first day of treatment); Period 2. days 9-22 (treatment period: two weeks); Period 3, days 23-36 (escape treatment period: two weeks). The administration of the drugs started on day 8, immediately after the animal was weighted, and finished on day 21. The treatment period ranges between one day after first administration and one day after last administration. The drugs were administered i.p. once daily. For comparative purposes, absolute weights were transformed into relative percentages (each weight was divided by that of day 8 and multiplied by 100). […] All results are expressed as mean±S.E.M.
The dependence of body-weight (expressed as a percentage relative to day 8) on time (number of lays after inclusion in the study) and treatment was assessed by a two-way (time, treatment) analysis of variance (ANOVA) with repeated measures on the time factor. […] The differences between pairs of curves (treatments) were analyzed using appropriate contrasts within the ANOVA test. […]

[3] = Chronic administration to animals made obese by a simplified cafeteria diet; assay type: in vivo, rats

Structure (SMILES): Cl.O=C(NN1CCCCC1)C1=NN(c2ccc(Cl)cc2Cl)[C@H](c2ccc(Cl)cc2)C1 [A-Hydrochloride, Hydrochloride salt of (S)-N-piperidinyl-5-(4-chlorophenyl)-1-(2,4-dichlorophenyl)-4,5-dihydro-1H-pyrazole-3-carboxamide]
Antagonism [%] [1]: −7%

Antagonism [%] [1]: 43%
Structure (SMILES): O=C(NN1CCCCC1)C1=NN(c2ccc(Cl)cc2Cl)[C@H](c2ccc(Cl)cc2)C1 [A, (S)-N-piperidinyl-5-(4-chlorophenyl)-1-(2,4-dichlorophenyl)-4,5-dihydro-1H-pyrazole-3-carboxamide]
body weight during treatment period ([2]; 10 mg/kg i.p. once daily, days 9-22, FIG. 1): significant action during the treatment period
body weight in post-treatment period ([2]; after 10 mg/kg i.p. once daily, days 23-36, FIG. 1): relatively fast recovery of weight
body weight versus vehicle-treated controls ([3]; after 28 days of drug treatment, rats): lower than those of the vehicle-treated controls
body weight ([3]; chronic administration, animals made obese by cafeteria diet (high-fat diet, chocolate, ground peanuts)): significantly decreased body weight
effect on plasma lipids (triacylglycerol and glycerol) ([3]; following chronic administration, seems independent of weight loss): positive effect on plasma lipids
